Assay [1] concerns isolated guinea pig ileum. It counts as cell-based. The arrangement: pA2 /GPI: activity class: scale not given here. To be noted: isolated guinea pig ileum; for pA2 /GPI: activity class: not quantitated; for pA2 /GPI (antagonist potency): number of tissues in parentheses. On the procedure:
(§1) The bradykinin antagonists were assayed on isolated rat uterus in natural or induced estrus and on guinea pig ileum, according to the commonly accepted assay methods for bradykinin and related kinins as described by Trautschold (Handbook of Expt. Pharmacol. Vol 25, Springer Verlag, pp. 53-55, 1970) for inhibition of the myotropic activity of bradykinin. The inhibition potencies, as determined according to the commonly accepted manner described by Schild for antagonists of biologically active compounds (Br. J. Pharmacol. 2:189, 1947), and expressed as pA2 values are determined on isolated rat uterus (RUT) and isolated guinea pig ileum (GPI). In the assays, a dose-response curve is determined for the reference substance bradykinin. The dose of bradykinin which produced a half maximal contraction of tissue is the ED50 dose. An amount of bradykinin equivalent to twice the ED50 dose is administered to the tissue 30 seconds after the start of incubation of the tissue with a dose of antagonist. Doses of antagonist are increased in this protocol until pre-incubation with a dose of antagonist reduces the contraction in response to the double ED50 dose of bradykinin to response of a single ED50 dose of bradykinin. The pA2 value represents the negative logarithm of the molar concentration of antagonist necessary to reduce the response of a double ED50 dose of bradykinin to that of an ED50 dose. One unit of pA2 value represents an order of magnitude change in potency. For comparison, the negative log of the dose of BK, the dose which causes half maximal contraction of the tissues, is commonly known as the pD2 value. The pD2 value for bradykinin is 7.9 on the rat uterus and 7.4 on the guinea pig ileum.

Another assay concerns isolated rat uterus. It counts as cell-based. Conditions: for pA2 /RUT: activity class: not quantitated. On the procedure:
as §1

The subject of another assay is rat blood pressure. The experiment in a line: effects on blood pressure in the anesthetized rat (RBP), intraaortic and intravenous bolus. To be noted: rat blood pressure; for RBP-IA: activity class: intraaortic bolus; for RBP-IV: activity class: intravenous bolus. The arrangement: RBP-IA: activity class / RBP-IV: activity class: scale not given here. It counts as in vivo. As for the experimental part:
The in vivo effects of bradykinin antagonists on blood pressure in the anesthetized rat are determined according to the assay described by Roblero, Ryan and Stewart (Res. Commun. Pathol. Pharmacol. 6:207, 1973). The antagonists also produce inhibition of the bradykinin response when injected as a bolus admixture of bradykinin plus antagonist by either the ia or iv route of administration.

[2] abbreviates: isolated rat uterus, number of tissues in parentheses.

Where two headings read alike, the source gives them in different places. Square brackets hold non-standard residues; d marks the D form. Peptide text beside a SMILES is read from it. dPhe(4-Cl) = N[C@H](Cc1ccc(Cl)cc1)C(=O)O; d2Nal = N[C@H](Cc1ccc2ccccc2c1)C(=O)O; Hyp = O=C(O)[C@@H]1C[C@@H](O)CN1; 2Thi = N[C@@H](Cc1cccs1)C(=O)O; d2Thi = N[C@H](Cc1cccs1)C(=O)O

Regarding `N=C(N)NCCC[C@@H](N)C(=O)N[C@H](Cc1ccc2ccccc2c1)C(=O)N1CCC[C@H]1C(=O)N1CCC[C@H]1C(=O)NCC(=O)N[C@@H](Cc1ccccc1)C(=O)N[C@@H](CO)C(=O)N[C@H](Cc1ccccc1)C(=O)N[C@@H](Cc1ccccc1)C(=O)N[C@@H](CCCNC(=N)N)C(=O)O` [Example 31, DArg-DNal-Pro-Pro-Gly-Phe-Ser-DPhe-Phe-Arg] (H-[dR][d2Nal]PPGFS[dF]FR-OH), the “pA2 /GPI: activity class” value in assay [1] is 0. In addition, the “pA2 /RUT (antagonist potency)” value in the assay on isolated rat uterus stood at 5.6.

With `CC[C@H](C)[C@H](NC(=O)[C@H](CCCNC(=N)N)NC(=O)[C@H](Cc1cccs1)NC(=O)[C@@H](Cc1ccccc1)NC(=O)[C@H](CO)NC(=O)[C@H](Cc1cccs1)NC(=O)CNC(=O)[C@@H]1CCCN1C(=O)[C@@H]1CCCN1C(=O)[C@H](CCCNC(=N)N)NC(=O)[C@H](N)CCCNC(=N)N)C(=O)N[C@@H](Cc1ccc(O)cc1)C(=O)O` [Example 66, DArg-Arg-Pro-Pro-Gly-Thi-Ser-DPhe-Thi-Arg-Ile-Tyr] (H-[dR]RPPG[2Thi]S[dF][2Thi]RIY-OH), in assay [1], the “pA2 /GPI (antagonist potency)” value is reported as 5.8. The “pA2 /RUT: agonist potency as percent of BK potency” value in the assay on isolated rat uterus worked out at 0.3%.

In the case of `N=C(N)NCCC[C@H](NC(=O)[C@H](Cc1cccs1)NC(=O)[C@@H](Cc1ccccc1)NC(=O)[C@H](CO)NC(=O)[C@H](Cc1cccs1)NC(=O)CNC(=O)[C@@H]1C[C@@H](O)CN1C(=O)[C@@H]1C[C@@H](O)CN1C(=O)[C@H](N)Cc1ccc2ccccc2c1)C(=O)O` [Example 26, DNal-Hyp-Hyp-Gly-Thi-Ser-DPhe-Thi-Arg] (H-[d2Nal][Hyp][Hyp]G[2Thi]S[dF][2Thi]R-OH), the “pA2 /GPI: activity class” value in assay [1] stood at 0. In addition, in the assay on isolated rat uterus (isolated rat uterus), the “pA2 /RUT: activity class” value came out at 0.

`CC[C@@H](C)[C@@H](N)C(=O)N1CCC[C@H]1C(=O)N1C[C@H](O)C[C@H]1C(=O)NCC(=O)N[C@@H](Cc1ccccc1)C(=O)N[C@@H](CO)C(=O)N[C@H](Cc1ccccc1)C(=O)N[C@@H](Cc1ccccc1)C(=O)N[C@@H](CCCNC(=N)N)C(=O)O` [Example 17, DIle-Pro-Hyp-Gly-Phe-Ser-DPhe-Phe-Arg] (H-[dI]P[Hyp]GFS[dF]FR-OH): in the assay on rat blood pressure, the “RBP-IA: activity class” value was 0 and the “RBP-IV: activity class” value came out at 0. Further, in assay [1], the “pA2 /GPI: activity class” value is 0.

As to `N=C(N)NCCC[C@H](NC(=O)[C@H](Cc1ccccc1)NC(=O)[C@@H](Cc1cccs1)NC(=O)[C@H](CO)NC(=O)[C@H](Cc1ccccc1)NC(=O)CNC(=O)[C@@H]1CCCN1C(=O)[C@@H]1CCCN1C(=O)[C@H](N)Cc1ccc2ccccc2c1)C(=O)O` [Example 37, DNal-Pro-Pro-Gly-Phe-Ser-DThi-Phe-Arg] (H-[d2Nal]PPGFS[d2Thi]FR-OH), the “pA2 /GPI: activity class” value in assay [1] was found to be 0. In the assay on isolated rat uterus (isolated rat uterus), the “pA2 /RUT: activity class” value is recorded as 0.

As for `N=C(N)NCCC[C@@H](N)C(=O)N[C@H](Cc1ccc2ccccc2c1)C(=O)N1C[C@H](O)C[C@H]1C(=O)N1C[C@H](O)C[C@H]1C(=O)NCC(=O)N[C@@H](Cc1cccs1)C(=O)N[C@@H](CO)C(=O)N[C@H](Cc1ccccc1)C(=O)N[C@@H](Cc1cccs1)C(=O)N[C@@H](CCCNC(=N)N)C(=O)O` [Example 27, DArg-DNal-Hyp-Hyp-Gly-Thi-Ser-DPhe-Thi-Arg] (H-[dR][d2Nal][Hyp][Hyp]G[2Thi]S[dF][2Thi]R-OH), in assay [1], the “pA2 /GPI: activity class” value was determined as 0. In addition, in the assay with isolated rat uterus, the “pA2 /RUT (antagonist potency)” value came to 5.3.

Take `N=C(N)NCCC[C@@H](N)C(=O)N[C@H](Cc1ccc(Cl)cc1)C(=O)N1CCC[C@H]1C(=O)N1C[C@H](O)C[C@H]1C(=O)NCC(=O)N[C@@H](Cc1ccccc1)C(=O)N[C@@H](CO)C(=O)N[C@H](Cc1ccccc1)C(=O)N[C@@H](Cc1ccccc1)C(=O)N[C@@H](CCCNC(=N)N)C(=O)O` [Example 5, DArg-CDF-Pro-Hyp-Gly-Phe-Ser-DPhe-Phe-Arg] (H-[dR][dPhe(4-Cl)]P[Hyp]GFS[dF]FR-OH): the “pA2 /GPI: activity class” value in assay [1] worked out at 0. The “pA2 /RUT (antagonist potency)” value with isolated rat uterus (setting [2]) is given as 5.8.

Consider `N=C(N)NCCC[C@H](NC(=O)[C@H](Cc1ccccc1)NC(=O)[C@@H](Cc1ccccc1)NC(=O)[C@H](CO)NC(=O)[C@H](Cc1ccccc1)NC(=O)CNC(=O)[C@@H]1CCCN1C(=O)[C@@H]1CCCN1C(=O)[C@H](N)Cc1ccc(Cl)cc1)C(=O)O` [Example 2, CDF-Pro-Pro-Gly-Phe-Ser-DPhe-Phe-Arg] (H-[dPhe(4-Cl)]PPGFS[dF]FR-OH), for which the “pA2 /GPI: activity class” value in assay [1] is given as 0. Besides, the “pA2 /RUT (antagonist potency)” value in the assay on isolated rat uterus (setting [2]) came out at 5.0.

Consider `CC[C@@H](C)[C@@H](NC(=O)[C@H](N)CCCNC(=N)N)C(=O)N1CCC[C@H]1C(=O)N1C[C@H](O)C[C@H]1C(=O)NCC(=O)N[C@@H](Cc1ccccc1)C(=O)N[C@@H](CO)C(=O)N[C@H](Cc1ccccc1)C(=O)N[C@@H](Cc1ccccc1)C(=O)N[C@@H](CCCNC(=N)N)C(=O)O` [Example 18, DArg-DIle-Pro-Hyp-Gly-Phe-Ser-DPhe-Phe-Arg] (H-[dR][dI]P[Hyp]GFS[dF]FR-OH), for which, in the assay with rat blood pressure, the “RBP-IA: activity class” value turned out to be 0 and the “RBP-IV: activity class” value is 0. Further, the “pA2 /GPI: activity class” value in assay [1] amounted to 0.

On to `CC[C@H](C)[C@H](NC(=O)[C@H](CCCNC(=N)N)NC(=O)[C@H](Cc1ccccc1)NC(=O)[C@@H](Cc1ccccc1)NC(=O)[C@H](CO)NC(=O)[C@H](Cc1ccccc1)NC(=O)CNC(=O)[C@@H]1CCCN1C(=O)[C@@H]1CCCN1C(=O)[C@H](CCCNC(=N)N)NC(=O)[C@H](N)CCCNC(=N)N)C(=O)N[C@@H](Cc1ccc(O)cc1)C(=O)O` [Example 64, DArg-Arg-Pro-Pro-Gly-Phe-Ser-DPhe-Phe-Arg-Ile-Tyr] (H-[dR]RPPGFS[dF]FRIY-OH), for which the “pA2 /GPI (antagonist potency)” value in assay [1] is 6.2. The “pA2 /RUT: agonist potency as percent of BK potency” value in the assay on isolated rat uterus (isolated rat uterus) is on record as 0.7%.

Consider `N=C(N)NCCC[C@H](NC(=O)[C@H](Cc1ccccc1)NC(=O)[C@@H](Cc1cccs1)NC(=O)[C@H](CO)NC(=O)[C@H](Cc1ccccc1)NC(=O)CNC(=O)[C@@H]1C[C@@H](O)CN1C(=O)[C@@H]1CCCN1C(=O)[C@H](N)Cc1ccc2ccccc2c1)C(=O)O` [Example 38, DNal-Pro-Hyp-Gly-Phe-Ser-DThi-Phe-Arg] (H-[d2Nal]P[Hyp]GFS[d2Thi]FR-OH), for which, in assay [1], the “pA2 /GPI: activity class” value is reported as 0. Moreover, the “pA2 /RUT: activity class” value in the assay with isolated rat uterus (isolated rat uterus) was 0.

Turning to `N=C(N)NCCC[C@@H](N)C(=O)N[C@@H](CCCNC(=N)N)C(=O)N1CCC[C@H]1C(=O)N1CCC[C@H]1C(=O)NCC(=O)N[C@@H](Cc1cccs1)C(=O)N[C@@H](CO)C(=O)N[C@H](Cc1ccccc1)C(=O)N[C@@H](Cc1cccs1)C(=O)N[C@H](CCCNC(=N)N)C(=O)O` [Example 43, DArg-Arg-Pro-Pro-Gly-Thi-Ser-DPhe-Thi-DArg] (H-[dR]RPPG[2Thi]S[dF][2Thi][dR]-OH), the “pA2 /GPI: activity class” value in assay [1] is given as 0. The “pA2 /RUT: activity class” value in the assay with isolated rat uterus (isolated rat uterus) is 0.

In the case of `CC(=O)N[C@@H](CCCNC(=N)N)C(=O)N1CCC[C@H]1C(=O)N1CCC[C@H]1C(=O)NCC(=O)N[C@@H](Cc1cccs1)C(=O)N[C@@H](CO)C(=O)N[C@H](Cc1ccccc1)C(=O)N[C@@H](Cc1cccs1)C(=O)N[C@H](CCCNC(=N)N)C(N)=O` [Example 56, Ac-Arg-Pro-Pro-Gly-Thi-Ser-DPhe-Thi-DArg-NH2] (Ac-RPPG[2Thi]S[dF][2Thi][dR]-NH2), the “pA2 /GPI: activity class” value in assay [1] was 0. Moreover, in the assay with isolated rat uterus (isolated rat uterus), the “pA2 /RUT: activity class” value was 0.

As to `N=C(N)NCCC[C@H](NC(=O)[C@H](Cc1ccccc1)NC(=O)[C@@H](Cc1cccs1)NC(=O)[C@H](CO)NC(=O)[C@H](Cc1ccccc1)NC(=O)CNC(=O)[C@@H]1CCCN1C(=O)[C@@H]1CCCN1C(=O)[C@H](N)Cc1ccc(Cl)cc1)C(=O)O` [Example 6, CDF-Pro-Pro-Gly-Phe-Ser-DThi-Phe-Arg] (H-[dPhe(4-Cl)]PPGFS[d2Thi]FR-OH), in the assay on rat blood pressure, the “RBP-IA: activity class” value is 0 and the “RBP-IV: activity class” value amounted to 0. Besides, the “pA2 /GPI: activity class” value in assay [1] turned out to be 0.

`N=C(N)NCCC[C@H](NC(=O)[C@H](Cc1ccccc1)NC(=O)[C@@H](Cc1ccccc1)NC(=O)[C@H](CO)NC(=O)[C@H](Cc1ccccc1)NC(=O)CNC(=O)[C@@H]1C[C@@H](O)CN1C(=O)[C@@H]1CCCN1C(=O)[C@H](N)Cc1ccc(O)cc1)C(=O)O` [Example 9, DTyr-Pro-Hyp-Gly-Phe-Ser-DPhe-Phe-Arg] (H-[dY]P[Hyp]GFS[dF]FR-OH): the “pA2 /GPI: activity class” value in assay [1] worked out at 0.

Take `CC(C)[C@@H](NC(=O)[C@H](N)CCCNC(=N)N)C(=O)N1CCC[C@H]1C(=O)N1C[C@H](O)C[C@H]1C(=O)NCC(=O)N[C@@H](Cc1ccccc1)C(=O)N[C@@H](CO)C(=O)N[C@H](Cc1ccccc1)C(=O)N[C@@H](Cc1ccccc1)C(=O)N[C@@H](CCCNC(=N)N)C(=O)O` [Example 16, DArg-DVal-Pro-Hyp-Gly-Phe-Ser-DPhe-Phe-Arg] (H-[dR][dV]P[Hyp]GFS[dF]FR-OH): in the assay with rat blood pressure, the “RBP-IA: activity class” value is 0 and the “RBP-IV: activity class” value is 0. The “pA2 /GPI: activity class” value in assay [1] is on record as 0.

The values are drawn from US4923963A, “Bradykinin antagonist peptides” (Nova Technology Limited Partnership, priority 1987, dated 1990).
